We go through one compound from publication PMC6811774, “Potent, selective, and subunit‐dependent activation of TRPC5 channels by a xanthine derivative” (British Journal of Pharmacology, 2019).

The target of series [1] is TRPC4:C1 channels (Homo sapiens, UniProt P48995+Q9UBN4). Briefly: [Ca2+]i measurement in (Tet+) HEK T-REx cells expressing hTRPC4-C1 concatemer. In kind it is cell-based. Here is the method: HEK T‐REx™ cell line was transfected with TRPC5‐SYFP2 or TRPC4‐SYFP2 using FuGENE® HD transfection reagent. After 48 hr, cells were put under antibiotic selection using 400 μg·ml^−1 zeocin and 10 μg·ml^−1 blasticidin S (Invivogen, San Diego, California, USA). Medium changes were carried out regularly to remove dead cells. HEK T‐REx cells expressing tetracycline‐inducible human TRPC5, TRPC4–C1, and TRPC5–C1 were created as described previously (Akbulut et al., 2015; Ludlow et al., 2017; Rubaiy, Ludlow, Henrot, et al., 2017). TRPC5–C1 and TRPC4–C1 concatemers allow expression of functional channels with defined 2:2 stoichiometry that display ion permeability and current–voltage relationships distinct from those of homomeric TRPC4:C4 or TRPC5:C5 channels and consistent with those obtained upon co‐expression of TRPC1 with TRPC4 or TRPC5 (Ludlow et al., 2017; Rubaiy, Ludlow, Bon, & Beech, 2017; Rubaiy, Ludlow, Henrot, et al., 2017). Cells were cultured in DMEM‐F12 GlutaMAX (Invitrogen, Paisley, UK) containing 10% FBS (Sigma‐Aldrich, Gillingham, UK), with the addition of blasticidin (10 μg·ml^−1) and zeocin (400 μg·ml^−1) to maintain the stable incorporation of the tetracycline repressor and the channel of interest, respectively. Expression of proteins was induced by the addition of tetracycline (1 μg·ml^−1, 24 hr). Cells were maintained in a humidified incubator with 5% CO2 at 37°C. HEK 293 cells stably expressing tetracycline‐regulated human http://www.guidetopharmacology.org/GRAC/ObjectDisplayForward?objectId=494 were prepared similarly and have also been described previously (McHugh, Flemming, Xu, Perraud, & Beech, 2003). For experiments using transient co‐expression of TRPC1 and TRPC5, HEK cells at 40–60% confluency were transfected with pIRES2‐AcGFP1 and pIRES2‐DsRed‐Express2 plasmids containing human TRPC1 and TRPC5, respectively, using Lipofectamine 3000 (ThermoFisher Scientific, Yokohama, Japan). All experiments using transient expression were performed within 48 hr after transfection. […]

The target in series [2] is T1, native TRPC1:C4 channels in A498 cells (Homo sapiens, UniProt P48995+Q9UBN4).
T1 construct: A498 renal carcinoma cells, which endogenously express TRPC1:C4 channels; endogenous in cells; host or cells: A498
Briefly: [Ca2+]i measurement in A498 renal carcinoma cells. In kind it is cell-based.

Series [3] has as its target T2, TRPM2 (Homo sapiens, UniProt O94759).
T2 construct: expressed in transfected cells
Briefly: [Ca2+]i selectivity assay, (Tet+) HEK T-REx cells expressing TRPM2, H2O2 activation. The note with it: 300 nM AM237; 1 mM H2O2. Format: cell-based.

In series [4] the test system is HEK T-REx (Tet+) cells expressing TRPC5. Briefly: LIVE/DEAD cell viability assay. Format: cell-based, human. The note with it: AM237 up to 1 μM, 30 min. Here is the method:
Cell viability was assayed using the LIVE/DEAD® cell viability kit (Molecular Probes™, Eugene, Oregon, USA). HEK T‐REx expressing tetracycline‐inducible hTRPC5 were plated onto black, clear bottom poly‐D‐lysine‐coated 96‐well plates, at 25,000 cells per well, and TRPC5 protein expression was induced with 1 μg·ml^−1 tetracycline. Cells were cultured for 24 hr in DMEM‐F12 GlutaMAX (Invitrogen, Paisley, UK) containing 10% FBS, with the addition of blasticidin (10 μg·ml^−1) and zeocin (400 μg·ml^−1). For wells containing methanol‐treated positive control cells, medium was removed and 70% methanol/distilled water (100 μl) was added and cells returned to the incubator for 30 min. After incubation, the solution in each well was replaced with recording buffer (SBS with 0.01% pluronic acid and 0.05% DMSO; 100 μl). The LIVE/DEAD® (Molecular Probes™, Eugene, Oregon, US) cell viability kit was used to stain the cells. Calcein AM (5 μl) and ethidium homodimer‐1 (20 μl) were added to SBS with […] (10 ml). Compound and vehicle dilutions were carried out directly in LIVE/DEAD® solution and 100 μl of each was added to the recording buffer in each corresponding well. Cells were incubated for 30 min and immediately imaged. Imaging and analysis was carried out on the IncuCyte® ZOOM (Essen Bioscience, Welwyn Garden City, UK).

Series [5] relates to WT HEK 293 cells. In words: Whole-cell patch-clamp in WT HEK 293 cells. Format: cell-based, human. The note with it: AM237 1–100 nM; EA 30 nM. A general note: In patch-clamp work, channel activity is measured electrically.
Protocol: For electrophysiology experiments, cells were plated at a low density of 20–30% onto round or square glass coverslips (13 mm diameter or 5 × 5 mm), and TRPC expression in HEK T‐REx was induced with 1 μg·ml^−1 tetracycline 24 hr before experimentation. Experiments were carried out at room temperature. Extracellular solution consisted of SBS. Patch‐clamp recordings were performed in whole‐cell mode (Figure S7) and in excised outside‐out patch mode under voltage clamp at room temperature using 2–4 MΩ patch pipettes fabricated from borosilicate glass capillaries with an outside diameter of 1 mm and an inside diameter of 0.58 mm (Harvard Apparatus). The voltage protocol comprised voltage ramps applied from −100 to +100 mV every 10 s from a holding potential of 0 mV. […] All solutions were filtered using a 0.2 μm filter (Sartorius, UK).

Sequence of TRPC4:C1 channels (Q9UBN4 whole entry): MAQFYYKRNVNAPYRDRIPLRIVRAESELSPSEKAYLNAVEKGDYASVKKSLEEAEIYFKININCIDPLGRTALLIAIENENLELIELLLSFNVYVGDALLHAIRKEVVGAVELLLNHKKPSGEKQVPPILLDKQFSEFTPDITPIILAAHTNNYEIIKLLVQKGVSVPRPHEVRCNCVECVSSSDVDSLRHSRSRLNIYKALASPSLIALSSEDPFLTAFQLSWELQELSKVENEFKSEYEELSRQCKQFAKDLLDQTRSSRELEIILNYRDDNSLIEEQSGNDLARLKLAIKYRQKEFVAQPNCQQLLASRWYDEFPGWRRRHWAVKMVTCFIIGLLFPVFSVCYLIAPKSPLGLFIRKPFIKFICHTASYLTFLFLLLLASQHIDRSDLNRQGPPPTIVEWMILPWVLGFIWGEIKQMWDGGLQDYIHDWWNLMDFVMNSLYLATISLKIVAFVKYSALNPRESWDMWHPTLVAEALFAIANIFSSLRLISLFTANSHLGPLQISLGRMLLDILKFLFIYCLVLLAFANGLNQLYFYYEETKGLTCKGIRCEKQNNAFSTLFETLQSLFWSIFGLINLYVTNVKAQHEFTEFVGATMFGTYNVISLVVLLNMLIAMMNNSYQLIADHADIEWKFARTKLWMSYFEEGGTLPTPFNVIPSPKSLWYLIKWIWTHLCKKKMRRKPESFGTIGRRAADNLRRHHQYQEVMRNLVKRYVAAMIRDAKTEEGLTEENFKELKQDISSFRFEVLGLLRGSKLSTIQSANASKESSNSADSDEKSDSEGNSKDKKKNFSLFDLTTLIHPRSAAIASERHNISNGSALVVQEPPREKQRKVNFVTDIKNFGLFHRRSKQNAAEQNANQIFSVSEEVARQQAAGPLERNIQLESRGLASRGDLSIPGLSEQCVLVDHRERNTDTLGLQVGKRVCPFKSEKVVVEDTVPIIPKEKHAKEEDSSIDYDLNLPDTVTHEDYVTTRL
Sequence of TRPC4:C1 channels (P48995 whole entry): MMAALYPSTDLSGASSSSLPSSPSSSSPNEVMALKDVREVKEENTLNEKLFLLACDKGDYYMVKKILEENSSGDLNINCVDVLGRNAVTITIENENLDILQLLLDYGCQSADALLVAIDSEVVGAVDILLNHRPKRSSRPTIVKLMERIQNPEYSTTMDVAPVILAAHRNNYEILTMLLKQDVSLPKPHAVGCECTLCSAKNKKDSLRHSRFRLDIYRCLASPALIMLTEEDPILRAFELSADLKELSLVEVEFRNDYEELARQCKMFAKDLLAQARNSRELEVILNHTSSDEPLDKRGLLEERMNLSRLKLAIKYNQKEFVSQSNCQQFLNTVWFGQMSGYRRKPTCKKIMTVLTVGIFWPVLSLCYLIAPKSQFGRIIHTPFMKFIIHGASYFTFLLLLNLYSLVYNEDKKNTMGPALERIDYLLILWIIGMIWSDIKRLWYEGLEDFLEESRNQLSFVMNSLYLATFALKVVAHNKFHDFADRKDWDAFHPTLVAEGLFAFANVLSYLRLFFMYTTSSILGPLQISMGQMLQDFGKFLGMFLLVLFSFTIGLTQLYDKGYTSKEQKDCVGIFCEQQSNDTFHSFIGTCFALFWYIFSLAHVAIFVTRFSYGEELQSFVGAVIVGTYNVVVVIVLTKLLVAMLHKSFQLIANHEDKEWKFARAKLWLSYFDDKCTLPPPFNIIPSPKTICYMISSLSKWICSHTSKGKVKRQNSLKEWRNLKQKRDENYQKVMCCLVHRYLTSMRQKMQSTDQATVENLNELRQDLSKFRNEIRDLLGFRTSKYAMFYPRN
T1 sequence (Q9UBN4 whole entry): as the sequence (Q9UBN4 whole entry) above
T1 sequence (P48995 whole entry): as the sequence (P48995 whole entry) above
T2 sequence (O94759 whole entry): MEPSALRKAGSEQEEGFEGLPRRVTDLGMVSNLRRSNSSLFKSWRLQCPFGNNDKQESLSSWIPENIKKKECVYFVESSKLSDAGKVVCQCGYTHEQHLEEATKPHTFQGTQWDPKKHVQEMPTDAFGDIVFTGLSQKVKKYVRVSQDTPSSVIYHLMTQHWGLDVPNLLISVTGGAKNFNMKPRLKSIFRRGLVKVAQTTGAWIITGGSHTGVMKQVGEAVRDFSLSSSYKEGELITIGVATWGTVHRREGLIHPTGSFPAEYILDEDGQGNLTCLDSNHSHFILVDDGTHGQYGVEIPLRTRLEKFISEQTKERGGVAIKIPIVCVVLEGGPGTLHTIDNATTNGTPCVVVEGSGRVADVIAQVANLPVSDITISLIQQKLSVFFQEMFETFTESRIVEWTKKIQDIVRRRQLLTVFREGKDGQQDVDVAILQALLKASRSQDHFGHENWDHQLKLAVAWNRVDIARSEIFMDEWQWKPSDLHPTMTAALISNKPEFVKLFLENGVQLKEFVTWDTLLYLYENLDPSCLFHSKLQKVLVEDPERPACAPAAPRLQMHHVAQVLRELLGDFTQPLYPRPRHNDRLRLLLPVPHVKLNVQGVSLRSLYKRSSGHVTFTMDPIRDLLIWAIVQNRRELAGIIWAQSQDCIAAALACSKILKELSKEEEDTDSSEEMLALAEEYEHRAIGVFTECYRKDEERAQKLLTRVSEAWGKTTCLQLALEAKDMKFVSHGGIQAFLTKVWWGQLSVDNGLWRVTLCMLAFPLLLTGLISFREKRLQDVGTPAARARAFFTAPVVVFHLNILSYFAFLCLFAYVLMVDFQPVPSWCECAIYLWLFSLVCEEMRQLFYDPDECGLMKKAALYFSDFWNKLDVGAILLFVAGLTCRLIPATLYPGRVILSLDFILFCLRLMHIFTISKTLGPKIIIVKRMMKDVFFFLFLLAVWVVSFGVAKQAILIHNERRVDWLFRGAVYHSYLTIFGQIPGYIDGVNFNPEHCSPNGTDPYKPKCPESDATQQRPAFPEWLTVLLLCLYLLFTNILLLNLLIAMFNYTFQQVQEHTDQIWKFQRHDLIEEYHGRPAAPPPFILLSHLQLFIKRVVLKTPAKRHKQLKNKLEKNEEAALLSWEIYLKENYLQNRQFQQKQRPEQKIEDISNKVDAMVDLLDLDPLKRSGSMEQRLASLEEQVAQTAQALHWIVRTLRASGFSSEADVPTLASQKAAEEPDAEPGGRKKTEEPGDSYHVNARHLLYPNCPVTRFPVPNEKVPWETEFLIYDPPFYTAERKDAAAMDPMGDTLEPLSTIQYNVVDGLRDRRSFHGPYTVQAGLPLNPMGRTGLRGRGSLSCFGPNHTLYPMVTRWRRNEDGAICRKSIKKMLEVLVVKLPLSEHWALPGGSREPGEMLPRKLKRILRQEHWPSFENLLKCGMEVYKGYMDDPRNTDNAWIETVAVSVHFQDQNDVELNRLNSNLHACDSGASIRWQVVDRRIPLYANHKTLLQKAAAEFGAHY

Broadly, the IC50 is the concentration needed to halve the response being measured. In the case of `Cn1c(=O)n(CCCO)c(=O)c2c1nc(Oc1ccc(Cl)c(OC(F)(F)F)c1)n2Cc1ccc(Cl)cc1` [AM237], the “Hill slope, inhibition of EA response” value in series [1] is “–1.3”; in series [2], -0.99. Further, the “Effect of pretreatment on basal [Ca2+]i” value in series [1] (0.03–30 nM AM237) is recorded as “did not affect”; in series [2] (0.01–10 nM AM237) it was “no effect”. The “Activation upon acute administration ([Ca2+]i)” value in series [1] (3-300 nM AM237) and in series [2] (3-300 nM AM237) was “lack of activation” each time. Also, the IC50 in series [2] (AM237 pretreatment, then EA, read-out: IC50, inhibition of EA-mediated increase in [Ca2+]i) is 0.849 nM. The “Activation or inhibition of TRPM2” value in series [3] was “no activation or inhibition”. Moreover, the “Cell viability (LIVE/DEAD)” value in series [4] is “did not lead to reduced”. Also, the “Effect on whole-cell currents at +100 and -100 mV” value in series [5] is listed as “no significant effect”.
